Columns and labels:
HSD17B13 = HSD17B13 (Homo sapiens (Human), UniProt Q7Z5P4); assay: HSD17B13 enzymatic inhibition assay (150 nM or 50 nM HSD17B13); assay type: biochemical; conditions: 50 nM HSD17B13; read-out: Inhibition of 50 nM of HSD17B13 IC50
[1] = Microsome stability assay, mouse liver microsomes; assay type: in vitro ADME; conditions: 1 μM compound, 0.5 mg/mL microsomal protein; for microsomal CLint at 1 h, 1 µM / half-life at 1 h, 1 µM / microsomal CLint at 1 μM / half-life at 1 μM: mouse, mouse liver microsomes, pooled, NADPH, 37° C.; for microsomal CLint at 1 h, 1 µM / microsomal CLint at 1 μM: read-out: Microsome Stability Mouse liver microsomes Cl; for half-life at 1 h, 1 µM / half-life at 1 μM: read-out: Microsome Stability Mouse liver microsomes T½
Method: (§1) Compounds of the disclosure were screened in microsome stability assays. For the screen, test compounds were incubated at 37° C. with either human liver microsomes (Corning; #452117) or mouse liver microsomes (XenoTech; #M1000), pooled from multiple donors, at 1 μM in the presence of a NADPH regenerating system at 0.5 mg/mL microsomal protein. Positive controls included in the assay were testosterone (3A4 substrate), propafenone (2D6) and diclofenac (2C9). Samples were removed at different time points (0, 5, 10, 20, 30 and 60 minutes) and immediately mixed with cold acetonitrile containing internal standard (IS, 200 ng/mL tolbutamide and 200 ng/mL labetalol). Test compounds incubated with microsomes for 60 minutes without the NADPH regenerating system was also included. A single point for each test condition (n=1) was obtained, and samples were analyzed by LC/MS/MS. Disappearance of the test compound was assessed based on peak area ratios of analyte/IS (no standard curve).

[2] = Microsome stability assay, human liver microsomes; assay type: in vitro ADME; conditions: 1 μM compound, 0.5 mg/mL microsomal protein; for microsomal CLint at 1 h, 1 µM / half-life at 1 h, 1 µM / microsomal CLint at 1 μM / half-life at 1 μM: human, human liver microsomes, pooled, NADPH, 37° C.; for microsomal CLint at 1 h, 1 µM / microsomal CLint at 1 μM: read-out: Microsome Stability Human liver microsomes Cl; for half-life at 1 h, 1 µM / half-life at 1 μM: read-out: Microsome Stability Human liver microsomes T½
Method: as §1

Chain of HSD17B13 (Q7Z5P4 other isoform, or with tags, fused parts or gaps): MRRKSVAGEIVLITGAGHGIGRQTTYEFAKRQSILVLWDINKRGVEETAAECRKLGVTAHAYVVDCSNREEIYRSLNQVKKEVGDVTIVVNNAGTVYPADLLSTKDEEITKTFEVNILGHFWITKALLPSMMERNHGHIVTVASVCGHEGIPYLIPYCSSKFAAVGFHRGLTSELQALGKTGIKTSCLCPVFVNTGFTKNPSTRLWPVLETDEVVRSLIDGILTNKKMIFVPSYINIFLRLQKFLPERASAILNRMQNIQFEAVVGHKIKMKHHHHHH

Compound | IC50 (HSD17B13) [nM] | Microsome Stability Mouse liver microsomes % Remaining @60 min [1] [%] | microsomal CLint at 1 h, 1 µM [1] [µL/min/mg] | half-life at 1 h, 1 µM [1] [min] | Microsome Stability Human liver microsomes % Remaining @60 min [2] [%] | microsomal CLint at 1 h, 1 µM [2] [µL/min/mg] | half-life at 1 h, 1 µM [2] [min] | microsomal CLint at 1 μM [1] [µL/min/mg] | half-life at 1 μM [1] [min] | microsomal CLint at 1 μM [2] [µL/min/mg] | half-life at 1 μM [2] [min]
O=C(NC(c1ccccc1)c1ccccc1)c1ccc(C(F)(F)F)[nH]c1=O [Compound 1, N-benzhydryl-2-oxo-6-(trifluoromethyl)-1,2-dihydropyridine-3-carboxamide] | 1750 | 29.00 | 42.4 | 32.7 | 66.90 | 13.4 | 103 |  |  |  | 
COc1ccc2c(c1)CCCC2NC(=O)c1ccc(C(F)(F)F)[nH]c1=O (centres unmarked) [Compound 234, N-(6-methoxy-1,2,3,4-tetrahydronaphthalen-1-yl)-2-oxo-6-(trifluoromethyl)-1,2-dihydropyridine-3-carboxamide] | 410 | 1 | 303 | 4.56 | 1 | 369 | 3.76 |  |  |  | 
Cc1ccc2c(c1)CCCC2NC(=O)c1ccc(C(F)(F)F)[nH]c1=O (centres unmarked) [Compound 235, N-(6-methyl-1,2,3,4-tetrahydronaphthalen-1-yl)-2-oxo-6-(trifluoromethyl)-1,2-dihydropyridine-3-carboxamide] | 200 | 50 | 23.6 | 58.7 | 1 | 547 | 2.53 |  |  |  | 
COc1ccc2c(c1)Oc1cc(OC)ccc1C2NC(=O)c1ccc(C(F)F)[nH]c1=O [Compound 273, 6-(difluoromethyl)-N-(3,6-dimethoxy-9H-xanthen-9-yl)-2-oxo-1,2-dihydropyridine-3-carboxamide] | 340 | 39 | 31 | 44.7 | 66.40 | 13.2 | 105 |  |  |  | 
CCC1CCc2cc(O)ccc2C1NC(=O)c1ccc(C(F)(F)F)[nH]c1=O (centres unmarked) [Compound 284, N-(2-ethyl-6-hydroxy-1,2,3,4-tetrahydronaphthalen-1-yl)-2-oxo-6-(trifluoromethyl)-1,2-dihydropyridine-3-carboxamide] | 340 | 76.40 |  |  | 70.70 | 9.82 | 141 | < 9.6 | > 145 |  | 
CCCC1CCc2cc(C)ccc2C1NC(=O)c1ccc(C(F)(F)F)[nH]c1=O (centres unmarked) [Compound 285, N-(6-methyl-2-propyl-1,2,3,4-tetrahydronaphthalen-1-yl)-2-oxo-6-(trifluoromethyl)-1,2-dihydropyridine-3-carboxamide] | 30 | 11.20 | 70.7 | 19.6 | 1.49 | 137 | 10.1 |  |  |  | 
CCCC1CCc2cc(Cl)ccc2C1NC(=O)c1ccc(C(F)(F)F)[nH]c1=O (stereo not drawn) [Compound 286, N-(6-chloro-2-propyl-1,2,3,4-tetrahydronaphthalen-l-yl)-2-oxo-6-(trifluoromethyl)-1,2-dihydropyridine-3-carboxamide] | 190 | 38.20 | 29.6 | 46.9 | 27.10 | 42.9 | 32.3 |  |  |  | 
CC1CCc2cc(Cl)ccc2C1NC(=O)c1ccc(C(F)(F)F)[nH]c1=O (centres unmarked) [Compound 293, N-(6-chloro-2-methyl-1,2,3,4-tetrahydronaphthalen-1-yl)-2-oxo-6-(trifluoromethyl)-1,2-dihydropyridine-3-carboxamide] | 130 | 33.80 | 37.9 | 36.5 | 0.14 | 231 | 6 |  |  |  | 
Cc1ccc2c(c1)CCC(C)C2NC(=O)c1ccc(C(F)(F)F)[nH]c1=O (centres unmarked) [Compound 294, N-(2,6-dimethyl-1,2,3,4-tetrahydronaphthalen-1-yl)-2-oxo-6-(trifluoromethyl)-1,2-dihydropyridine-3-carboxamide] | 90 | 33.80 | 33.4 | 41.5 | 0.10 | 643 | 2.15 |  |  |  | 
CCC1Cc2cc(OC)ccc2C1NC(=O)c1ccc(C(F)(F)F)[nH]c1=O (centres unmarked) [Compound 295, N-(2-ethyl-5-methoxy-2,3-dihydro-1H-inden-1-yl)-2-oxo-6-(trifluoromethyl)-1,2-dihydropyridine-3-carboxamide] | 100 | 69 | 12.7 | 110 | 1 | 221 | 6.26 |  |  |  | 
CCC1CCc2cc(Cl)ccc2C1NC(=O)c1ccc(C(F)(F)F)[nH]c1=O (centres unmarked) [Compound 297, N-(6-chloro-2-ethyl-1,2,3,4-tetrahydronaphthalen-1-yl)-2-oxo-6-(trifluoromethyl)-1,2-dihydropyridine-3-carboxamide] | 110 | 36.10 | 35.4 | 39.1 | 1.24 | 149 | 9.3 |  |  |  | 
Cc1ccc2c(c1)[C@@H](O)CC[C@H]2NC(=O)c1ccc(C(F)(F)F)[nH]c1=O [Compound 312, N-((1R,4S)-4-hydroxy-6-methyl-1,2,3,4-tetrahydronaphthalen-1-yl)-2-oxo-6-(trifluoromethyl)-1,2-dihydropyridine-3-carboxamide] | 450 | 96.90 |  |  | 78.40 |  |  | < 9.6 | > 145 | < 9.6 | > 145
CCCC1=Cc2cc(C)ccc2C1NC(=O)c1ccc(C(F)(F)F)[nH]c1=O (centres unmarked) [Compound 341, N-(5-methyl-2-propyl-1H-inden-1-yl)-2-oxo-6-(trifluoromethyl)-1,2-dihydropyridine-3-carboxamide] | 70 | 54.30 | 19.4 | 71.3 | 1.70 | 132 | 10.5 |  |  |  | 
CCC[C@H]1Oc2ccc(C)cc2[C@@H]1NC(=O)c1ccc(C(F)(F)F)[nH]c1=O [Compound 353, N-((2R,3S)-5-methyl-2-propyl-2,3-dihydrobenzofuran-3-yl)-2-oxo-6-(trifluoromethyl)-1,2-dihydropyridine-3-carboxamide] | 520 | 28.90 |  |  | 28.20 |  |  | 41.2 | 33.6 | 35.4 | 39.1
